Measurements published in article PMC9814900 (Communications Chemistry, 2022).
Numbered stars: 1 amine (or outer) side, 2 acyl side, 3 side chain; on linkers, the order of the positions; unused ones are H or OH. Bridge positions count the residues as written; N and C are the ends. Peptide text beside a SMILES is read from it. * marks the point of attachment. Biotin = O=C1N[C@H]2[C@H](CS[C@H]2CCCCC(=O)*)N1; C6F4(1,4-diyl) = Fc1c(F)c([*:2])c(F)c(F)c1[*:1]; PEG4 = NCCOCCOCCOCCOCCC(=O)O

Target: T1, SUMO-25-109MDM2 (Homo sapiens, UniProt Q00987)
T1 construct: the ^25-109MDM2 gene was purchased from Addgene; made in house; host or cells: E. coli Rosetta (DE3) pLysS
Test: In-solution competition assay by biolayer interferometry (BLI)
Assay type: binding
Conditions: supplementary binding validation; averaged over three measurements; ~30-100 nM SUMO-25-109MDM2 as given per peptide; read-out: Averaged KD, competition BLI assay

| Compound | Kd |
| --- | --- |
| CC(C)C[C@H](NC(=O)[C@H](C)NC(=O)[C@@H]1CSc2c(F)c(F)c(c(F)c2F)SC[C@H](NC(=O)[C@H](Cc2ccccc2)NC(=O)[C@H](CO)NC(=O)[C@H](C)N)C(=O)N[C@@H](CCC(=O)O)C(=O)N[C@@H](Cc2ccc(O)cc2)C(=O)N[C@@H](Cc2c[nH]c3ccccc23)C(=O)N1)C(=O)N[C@@H](C)C(=O)N[C@@H](C)C(N)=O [Peptide 36] (H-ASFCEYWCALAA-NH2; linker 4-8 via C6F4(1,4-diyl)) | 4.4 ± 1.9 nM |
| CC(C)C[C@@H]1NC(=O)[C@H](C)NC(=O)[C@@H](NC(=O)[C@H](Cc2c[nH]c3ccccc23)NC(=O)[C@H](Cc2ccc(O)cc2)NC(=O)[C@H](CCC(=O)O)NC(=O)[C@H](C)NC(=O)[C@H](Cc2ccccc2)NC(=O)[C@H](CO)NC(=O)[C@H](C)N)CSc2c(F)c(F)c(c(F)c2F)SC[C@@H](C(N)=O)NC(=O)[C@H](C)NC1=O [Peptide 39] (H-ASFAEYWCALAC-NH2; linker 8-12 via C6F4(1,4-diyl)) | 3.3 ± 2.1 nM |
| CC(C)C[C@H](NC(=O)[C@H](C)NC(=O)[C@@H]1CSc2c(F)c(F)c(c(F)c2F)SC[C@H](NC(=O)[C@H](Cc2ccccc2)NC(=O)[C@H](C)NC(=O)[C@H](C)N)C(=O)N[C@@H](CCC(=O)O)C(=O)N[C@@H](Cc2ccc(O)cc2)C(=O)N[C@@H](Cc2c[nH]c3ccccc23)C(=O)N1)C(=O)N[C@@H](CO)C(=O)N1CCC[C@H]1C(N)=O [Peptide 35] (H-AAFCEYWCALSP-NH2; linker 4-8 via C6F4(1,4-diyl)) | 316 ± 27 nM |
| CC(C)C[C@@H]1NC(=O)[C@H](CC(C)C)NC(=O)[C@@H](NC(=O)[C@H](Cc2c[nH]c3ccccc23)NC(=O)[C@H](Cc2ccc(O)cc2)NC(=O)[C@H](CCC(=O)O)NC(=O)[C@H](C)NC(=O)[C@H](Cc2ccccc2)NC(=O)[C@H](CO)NC(=O)[C@@H](N)[C@@H](C)O)CSc2c(F)c(F)c(c(F)c2F)SC[C@@H](C(N)=O)NC(=O)[C@H](CO)NC1=O [Peptide 16] (H-TSFAEYWCLLSC-NH2; linker 8-12 via C6F4(1,4-diyl)) | 3 ± 1.3 nM |
| CC(C)C[C@H](NC(=O)[C@@H]1CSc2c(F)c(F)c(c(F)c2F)SC[C@H](NC(=O)[C@H](C)NC(=O)[C@H](Cc2ccccc2)NC(=O)[C@H](CO)NC(=O)[C@H](C)N)C(=O)N[C@@H](Cc2ccc(O)cc2)C(=O)N[C@@H](Cc2c[nH]c3ccccc23)C(=O)N[C@@H](C)C(=O)N1)C(=O)N[C@@H](CO)C(=O)N[C@@H](C)C(N)=O [Peptide 38] (H-ASFACYWACLSA-NH2; linker 5-9 via C6F4(1,4-diyl)) | 0.4 ± 0.3 nM |
| CC(C)C[C@@H]1NC(=O)[C@H](CC(N)=O)NC(=O)[C@H](Cc2c[nH]c3ccccc23)NC(=O)[C@@H](NC(=O)[C@H](CCC(=O)O)NC(=O)[C@H](C)NC(=O)[C@H](Cc2ccccc2)NC(=O)[C@H](CO)NC(=O)[C@@H](N)[C@@H](C)O)CSc2c(F)c(F)c(c(F)c2F)SC[C@@H](C(=O)N[C@@H](CO)C(=O)N2CCC[C@H]2C(N)=O)NC1=O [Peptide 14] (H-TSFAECWNLCSP-NH2; linker 6-10 via C6F4(1,4-diyl)) | 2020 ± 514 nM |

Test system: not listed separately
Test: Serum stability assay
Assay type: in vitro ADME
Conditions: 10 µM peptide, 25% human serum in 1x PBS (v/v); 0 min-24 h; TCA precipitation; LC-MS EIC peak area; first-order fit; three experiments; read-out: Half-life (t1/2) in serum
Description: To assess the stability of stapled peptides, we performed a serum stability assay (Supplementary Fig. 6)[31],[36],[37]. Three stapled peptides were selected for assessment. […]
10 µM peptide were incubated with 25% human serum in buffer 1x PBS (v/v). At each time point (0 min, 5 min, 10 min, 30 min, 1 h, 2 h, 4 h, 8 h, 12h and 24 h), the mixture was sampled, treated with 10% trichloroacetic acid, and centrifuged at 12,000 g to remove serum proteins. The supernatant was acidified with 0.2% formic acid in water (v/v) and subjected to LC-MS analysis. The percentage of peptides (Y-axis) was calculated as the ratio of peak area in extracted ion chromatogram (EIC). Three experiments were carried out. The serum digestion curve was plotted using Prism8 software. The half-life of each peptide was calculated by fitted the digestion curve with the first order kinetic equation: ሾXሿ௧ ൌ ሾXሿ଴ ൈeି௞௧ , ሾXሿ is the remaining peptide percentage, t is the time in min. Half-life was calculated as tଵ/ଶ ൌሺln 2ሻ/k .

| Compound | half-life at 10 µM |
| --- | --- |
| CC(C)C[C@H](NC(=O)[C@H](CC(N)=O)NC(=O)[C@H](Cc1c[nH]c2ccccc12)NC(=O)[C@H](Cc1ccc(O)cc1)NC(=O)[C@H](CCC(=O)O)NC(=O)[C@H](C)NC(=O)[C@H](Cc1ccccc1)NC(=O)[C@H](CO)NC(=O)[C@@H](N)[C@@H](C)O)C(=O)N[C@@H](CC(C)C)C(=O)N[C@@H](CO)C(=O)N1CCC[C@H]1C(N)=O [PMI, reference compound] (H-TSFAEYWNLLSP-NH2) | 2.2 min |
| CC(C)C[C@H](NC(=O)[C@H](C)NC(=O)[C@H](C)NC(=O)[C@H](Cc1c[nH]c2ccccc12)NC(=O)[C@H](Cc1ccc(O)cc1)NC(=O)[C@H](C)NC(=O)[C@H](C)NC(=O)[C@H](Cc1ccccc1)NC(=O)[C@H](C)NC(=O)[C@H](C)N)C(=O)N[C@@H](C)C(=O)N[C@@H](C)C(=O)N[C@@H](CCCCN)C(N)=O [Peptide 34] (H-AAFAAYWAALAAK-NH2) | 5.1 min |
| CC(C)C[C@H](NC(=O)[C@H](C)NC(=O)[C@@H]1CSc2c(F)c(F)c(c(F)c2F)SC[C@H](NC(=O)[C@H](Cc2ccccc2)NC(=O)[C@H](CO)NC(=O)[C@H](C)N)C(=O)N[C@@H](CCC(=O)O)C(=O)N[C@@H](Cc2ccc(O)cc2)C(=O)N[C@@H](Cc2c[nH]c3ccccc23)C(=O)N1)C(=O)N[C@@H](C)C(=O)N[C@@H](C)C(N)=O [Peptide 36] (H-ASFCEYWCALAA-NH2; linker 4-8 via C6F4(1,4-diyl)) | 26 min |
| CC(C)C[C@@H]1NC(=O)[C@H](C)NC(=O)[C@@H](NC(=O)[C@H](Cc2c[nH]c3ccccc23)NC(=O)[C@H](Cc2ccc(O)cc2)NC(=O)[C@H](CCC(=O)O)NC(=O)[C@H](C)NC(=O)[C@H](Cc2ccccc2)NC(=O)[C@H](CO)NC(=O)[C@H](C)N)CSc2c(F)c(F)c(c(F)c2F)SC[C@@H](C(N)=O)NC(=O)[C@H](C)NC1=O [Peptide 39] (H-ASFAEYWCALAC-NH2; linker 8-12 via C6F4(1,4-diyl)) | 25 min |
| CC(C)C[C@H](NC(=O)[C@H](C)NC(=O)[C@H](C)NC(=O)[C@H](Cc1c[nH]c2ccccc12)NC(=O)[C@H](Cc1ccc(O)cc1)NC(=O)[C@H](C)NC(=O)[C@H](C)NC(=O)[C@H](Cc1ccccc1)NC(=O)[C@H](C)NC(=O)[C@@H](N)[C@@H](C)O)C(=O)N[C@@H](C)C(=O)N[C@@H](C)C(=O)N[C@@H](CCCCN)C(N)=O [Peptide 32] (H-TAFAAYWAALAAK-NH2) | 3.9 min |
| CC(C)C[C@H](NC(=O)[C@@H]1CSc2c(F)c(F)c(c(F)c2F)SC[C@H](NC(=O)[C@H](C)NC(=O)[C@H](Cc2ccccc2)NC(=O)[C@H](CO)NC(=O)[C@H](C)N)C(=O)N[C@@H](Cc2ccc(O)cc2)C(=O)N[C@@H](Cc2c[nH]c3ccccc23)C(=O)N[C@@H](C)C(=O)N1)C(=O)N[C@@H](CO)C(=O)N[C@@H](C)C(N)=O [Peptide 38] (H-ASFACYWACLSA-NH2; linker 5-9 via C6F4(1,4-diyl)) | 27 min |

Target: T1, SUMO-25-109MDM2
Test: Direct BLI binding assay of immobilised biotinylated peptides
Conditions: biotin-PEG4-peptide on streptavidin sensor, SUMO-25-109MDM2 4-500 nM, global 1:1 fit
Description: 6. Supplementary Methods 4: Binding validation by bio-layer interferometry 6.1 Methods for BLI assay
In vitro binding assay was performed using ForteBio Octet RED96 BLI system (Octet RED96). In a typical experiment, the streptavidin (SA) tips were dipped in 200 µL biotinylated- peptide solution (2.0 μM in PBS with 0.02% Tween 20 and 1 mg/mL BSA) for the loading step. The loaded tips were then dipped in the sample wells for association curves. Buffer-only condition were used as reference for background subtraction. After association, the tips were dipped in blocking buffer (1x PBS, 0.02% Tween 20, 1 mg/mL BSA) to obtain dissociation curve. The association and dissociation curves were fitted by the global fitting algorithm, under binding model 1:1 to obtain the binding response value (R) in nm.
Streptavidin sensors were soaked in blocking buffer for 5 min. After immobilizing the PEG4-biotinylated peptide (100 nM of Biotin-PEG4-peptide) onto streptavidin sensors, serial dilutions of SUMO-25-109MDM2 in blocking buffer were analyzed for binding (500 nM, 250 nM, 125 nM, 63nM, 32 nM, 16 nM, 8 nM and 4 nM. The response was recorded at equilibrium after 2 min.

| Compound | koff | kon |
| --- | --- | --- |
| CC(C)C[C@H](NC(=O)[C@H](C)NC(=O)[C@H](C)NC(=O)[C@H](Cc1c[nH]c2ccccc12)NC(=O)[C@H](Cc1ccc(O)cc1)NC(=O)[C@H](C)NC(=O)[C@H](C)NC(=O)[C@H](Cc1ccccc1)NC(=O)[C@H](C)NC(=O)[C@@H](NC(=O)CCOCCOCCOCCOCCNC(=O)CCCC[C@@H]1SC[C@@H]2NC(=O)N[C@@H]21)[C@@H](C)O)C(=O)N[C@@H](C)C(=O)N[C@@H](C)C(=O)N[C@@H](CCCCN)C(N)=O [Peptide 32-biotin] ({Biotin-PEG4}-TAFAAYWAALAAK-NH2) | 0.00981 s⁻¹ | 633000 M⁻¹ s⁻¹ |
| CC(C)C[C@H](NC(=O)[C@H](C)NC(=O)[C@H](C)NC(=O)[C@H](Cc1c[nH]c2ccccc12)NC(=O)[C@H](Cc1ccc(O)cc1)NC(=O)[C@H](C)NC(=O)[C@H](C)NC(=O)[C@H](Cc1ccccc1)NC(=O)[C@H](C)NC(=O)[C@H](C)NC(=O)CCOCCOCCOCCOCCNC(=O)CCCC[C@@H]1SC[C@@H]2NC(=O)N[C@@H]21)C(=O)N[C@@H](C)C(=O)N[C@@H](C)C(=O)N[C@@H](CCCCN)C(N)=O [Peptide 34-biotin] ({Biotin-PEG4}-AAFAAYWAALAAK-NH2) | 0.0102 s⁻¹ | 824000 M⁻¹ s⁻¹ |
| CC(C)C[C@H](NC(=O)[C@H](C)NC(=O)[C@H](C)NC(=O)[C@H](Cc1c[nH]c2ccccc12)NC(=O)[C@H](Cc1ccc(O)cc1)NC(=O)[C@H](C)NC(=O)[C@H](C)NC(=O)[C@H](Cc1ccccc1)NC(=O)[C@H](CO)NC(=O)[C@H](C)NC(=O)CCOCCOCCOCCOCCNC(=O)CCCC[C@@H]1SC[C@@H]2NC(=O)N[C@@H]21)C(=O)N[C@@H](C)C(=O)N[C@@H](C)C(=O)N[C@@H](CCCCN)C(N)=O [Peptide 33-biotin] ({Biotin-PEG4}-ASFAAYWAALAAK-NH2) | 0.0107 s⁻¹ | 170000 M⁻¹ s⁻¹ |

Target: MDM2
Test: not given
Conditions: KD of single alanine mutant relative to PMI; ref 3 of supplement (Li et al., J. Mol. Biol. 2010); cited from earlier work

| Compound | KD ratio |
| --- | --- |
| ASFAEYWNLLSP [Peptide T1A] | 1.9 |
| TSFAEYWNLLSA [Peptide P12A] | 0.7 |
| TSFAEYWNALSP [Peptide L9A] | 0.8 |
| TAFAEYWNLLSP [Peptide S2A] | 8.4 |
| TSFAEAWNLLSP [Peptide Y6A] | 191 |
| TSFAEYANLLSP [Peptide W7A] | 50720 |
| TSFAEYWNLLAP [Peptide S11A] | 1.2 |
| TSFAEYWNLASP [Peptide L10A] | 227 |
| TSAAEYWNLLSP [Peptide F3A] | 11750 |
| TSFAAYWNLLSP [Peptide E5A] | 6.7 |

Target: antibody 12ca5
Test: not given
Conditions: stated for the epitope without method; ref not given; cited from earlier work
Text: The epitope used for 12ca5 has the sequence […]; the previously characterized protein 14-3-3σ binder 14-3-3.6 was used for 14-3-3σ and its sequence can be found in Fig. 6b. A beta-alanine spacer was used between the library construct and the C-terminal lysine.

| Compound | Kd |
| --- | --- |
| YPYDVPDYA | 4 nM |

Target: 14-3-3σ
Test: not given
Conditions: previously characterized binder; cited from earlier work
Text: The epitope used for 12ca5 has the sequence […]; the previously characterized protein 14-3-3σ binder 14-3-3.6 was used for 14-3-3σ and its sequence can be found in Fig. 6b. A beta-alanine spacer was used between the library construct and the C-terminal lysine. […]

| Compound | Kd |
| --- | --- |
| Cha-Cha-β-Ser-Orn-pSer-Nph-β-Ser-β-Ser-Nph [Peptide 14-3-3.6] | 3 nM |
